The source of these data is ChEMBL document CHEMBL4152259, “Benzoxazinone-containing 3,5-dimethylisoxazole derivatives as BET bromodomain inhibitors for treatment of castration-resistant prostate cancer” (Eur J Med Chem, 2018).

Active and inactive are the calls of the source. No cut-off for these calls is given here.

Data set [1] addresses T1, Transcription intermediary factor 1-alpha (Homo sapiens) (UniProt O15164).
T1 sequence (whole entry): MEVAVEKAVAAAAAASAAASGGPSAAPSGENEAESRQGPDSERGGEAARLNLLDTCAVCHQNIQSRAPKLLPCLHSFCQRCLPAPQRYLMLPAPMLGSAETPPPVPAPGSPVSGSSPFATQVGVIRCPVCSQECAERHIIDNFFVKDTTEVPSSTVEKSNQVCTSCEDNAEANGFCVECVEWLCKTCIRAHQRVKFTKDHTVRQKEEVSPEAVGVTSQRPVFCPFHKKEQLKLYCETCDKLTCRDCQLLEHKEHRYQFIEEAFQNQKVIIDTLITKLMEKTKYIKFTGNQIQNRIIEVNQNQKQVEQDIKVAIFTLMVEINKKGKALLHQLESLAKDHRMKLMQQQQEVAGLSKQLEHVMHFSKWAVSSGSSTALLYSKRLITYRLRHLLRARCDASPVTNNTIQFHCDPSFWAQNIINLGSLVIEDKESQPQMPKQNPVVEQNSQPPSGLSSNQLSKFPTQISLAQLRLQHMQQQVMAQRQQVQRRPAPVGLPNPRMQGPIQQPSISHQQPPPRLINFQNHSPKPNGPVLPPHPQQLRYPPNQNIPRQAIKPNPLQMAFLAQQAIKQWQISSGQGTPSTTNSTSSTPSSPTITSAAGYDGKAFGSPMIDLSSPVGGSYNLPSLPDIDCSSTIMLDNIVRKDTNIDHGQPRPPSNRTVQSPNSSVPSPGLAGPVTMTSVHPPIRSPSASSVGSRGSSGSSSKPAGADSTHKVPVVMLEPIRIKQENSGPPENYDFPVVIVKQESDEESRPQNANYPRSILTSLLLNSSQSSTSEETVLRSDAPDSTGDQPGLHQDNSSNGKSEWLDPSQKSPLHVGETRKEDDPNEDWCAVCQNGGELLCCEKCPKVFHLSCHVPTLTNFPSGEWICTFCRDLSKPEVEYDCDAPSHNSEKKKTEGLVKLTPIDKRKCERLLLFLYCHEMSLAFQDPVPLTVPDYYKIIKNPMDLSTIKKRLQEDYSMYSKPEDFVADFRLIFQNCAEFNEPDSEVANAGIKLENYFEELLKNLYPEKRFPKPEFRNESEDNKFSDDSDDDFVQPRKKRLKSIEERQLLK
Put plainly: Binding affinity to TIF1 (unknown origin) assessed as change in melting temperature at 200 uM by SYPRO orange dye based fluorescence assay.

The test system of data set [2] is DU-145. The data set can be described thus: Antiproliferative activity against human DU145 cells treated at 12 hrs post cell seeding measured at 72 to 144 hrs post cell seeding by Cell-Titer Glo assay. Format: functional, cell-based.
Data set [3] has as its system PC-3. Put plainly: Antiproliferative activity against human PC3 cells treated at 12 hrs post cell seeding measured at 72 to 144 hrs post cell seeding by Cell-Titer Glo assay. It counts as functional, cell-based.
For data set [4], the system named is MCF7. The data set can be described thus: Antiproliferative activity against human MCF7 cells treated at 12 hrs post cell seeding measured at 72 to 144 hrs post cell seeding by Cell-Titer Glo assay. Format: functional, cell-based.
For data set [5], the system named is Hs-578T. The data set can be described thus: Antiproliferative activity against human Hs578T cells treated at 12 hrs post cell seeding measured at 72 to 144 hrs post cell seeding by Cell-Titer Glo assay. It counts as functional, cell-based.
Data set [6] deals with MV4-11. The data set can be described thus: Antiproliferative activity against human MV4-11 cells treated at 12 hrs post cell seeding measured at 72 to 144 hrs post cell seeding by Cell-Titer Glo assay. Format: functional, cell-based.
Data set [7] concerns HT-29. The data set can be described thus: Antiproliferative activity against human HT-29 cells treated at 12 hrs post cell seeding measured at 72 to 144 hrs post cell seeding by Cell-Titer Glo assay. It counts as functional, cell-based.
In data set [8] the test system is U2OS. The data set can be described thus: Antiproliferative activity against human U2OS cells treated at 12 hrs post cell seeding measured at 72 to 144 hrs post cell seeding by Cell-Titer Glo assay. It counts as functional, cell-based.
Data set [9] concerns HeLa. Put plainly: Antiproliferative activity against human HeLa cells treated at 12 hrs post cell seeding measured at 72 to 144 hrs post cell seeding by Cell-Titer Glo assay. It counts as functional, cell-based.
The test system of data set [10] is A549. The data set can be described thus: Antiproliferative activity against human A549 cells treated at 12 hrs post cell seeding measured at 72 to 144 hrs post cell seeding by Cell-Titer Glo assay. Format: functional, cell-based.
In data set [11] the test system is NCI-H1975. Put plainly: Antiproliferative activity against human NCI-H1975 cells treated at 12 hrs post cell seeding measured at 72 to 144 hrs post cell seeding by Cell-Titer Glo assay. Format: functional, cell-based.
In data set [12] the test system is HFL1. The data set can be described thus: Antiproliferative activity against HFL1 cells treated at 12 hrs post cell seeding measured at 72 to 144 hrs post cell seeding by Cell-Titer Glo assay. Format: cell-based. As to conditions: Homo sapiens.
In data set [13] the target is Bromodomain-containing protein 4 (Homo sapiens, UniProt O60885). The data set can be described thus: Binding affinity to His6-tagged human BRD4 bromodomain-1 (N44 to E168 residues) expressed in Escherichia coli BL21(DE3) by ITC. On the technique in general: Isothermal titration calorimetry measures the heat released or taken up as one component is titrated into another.

Data set [14] concerns CWR22R. Put plainly: Inhibition of colony formation in human 22Rv1 cells after 14 days by crystal violet staining based assay. It counts as functional, cell-based.
The species entered for data set [15] is Homo sapiens. Put plainly: Inhibition of BET bromodomain in human 22Rv1 cells assessed as reduction in c-Myc mRNA level at 1 uM after 48 hrs by qPCR assay. It counts as cell-based.
The species named for data set [16] is Homo sapiens. The data set can be described thus: Inhibition of BET bromodomain in human LNCAP cells assessed as reduction in TMPRSS2 mRNA level at 1 uM after 48 hrs by qPCR assay. It counts as cell-based. Background: In qPCR the cycle at which signal appears reflects the starting amount.
For data set [17], the species on record is Homo sapiens. Put plainly: Inhibition of BET bromodomain in human LNCAP cells assessed as reduction in full length AR mRNA level at 1 uM after 48 hrs by qPCR assay. Format: cell-based.
Data set [18] is filed under the species Homo sapiens. The data set can be described thus: Inhibition of BET bromodomain in human 22Rv1 cells assessed as reduction in TMPRSS2 mRNA level at 1 uM after 48 hrs by qPCR assay. Format: cell-based.
Data set [19] is filed under the species Homo sapiens. The data set can be described thus: Inhibition of BET bromodomain in human LNCAP cells harboring pPSA-Luc/pRenialla-Luc assessed as reduction in PSA mRNA level after 24 hrs by luciferase reporter gene assay. Format: cell-based.
For data set [20], the species on record is Homo sapiens. Put plainly: Inhibition of BET bromodomain in human 22Rv1 cells assessed as AR-varient protein level at 16 uM after 48 hrs by Western blot assay (reference value: 1). It counts as cell-based.
In data set [21] the test system is CWR22R. The data set can be described thus: Antimigratory activity against human 22Rv1 cells at 1 uM after 48 hrs by transwell assay relative to control. It counts as functional.
For data set [22], the system named is CWR22R. The data set can be described thus: Anti-invasive activity against human 22Rv1 cells at 1 uM after 48 hrs by crystal violet staining based matrigel-mediated Boyden chamber assay relative to control. Format: functional.
Data set [23] can be described thus: Cmax in Sprague-Dawley rat at 10 mg/kg, po administered as single dose. Also on record: dose 10 mg/kg, route oral. As to conditions: in vivo. Format: ADME, organism-based.
A short description of data set [24]: AUC (0 to infinity) in Sprague-Dawley rat at 2 mg/kg, iv administered as single dose. It counts as ADME, organism-based. On the set-up: dose 2 mg/kg, route intravenous, time infinity. As to conditions: in vivo.
Data set [25] can be described thus: AUC (0 to infinity) in Sprague-Dawley rat at 10 mg/kg, po administered as single dose. It counts as ADME, organism-based. On the set-up: dose 10 mg/kg, route oral, time infinity. As to conditions: in vivo.
Data set [26] can be described thus: Half life in Sprague-Dawley rat at 10 mg/kg, po administered as single dose. Format: ADME, organism-based. As to conditions: in vivo.
Data set [27] in a line: Clearance in Sprague-Dawley rat at 2 mg/kg, iv administered as single dose. It counts as ADME, organism-based. As to conditions: in vivo.
The nature of data set [28]: Volume of distribution at steady state in Sprague-Dawley rat at 2 mg/kg, iv administered as single dose. It counts as ADME, organism-based. As to conditions: in vivo, read-out: Vdss.

As to `Cc1sc2c(c1C)C(c1ccc(Cl)cc1)=N[C@@H](CC(=O)OC(C)(C)C)c1nnc(C)n1-2`, the ΔTm in data set [1] was determined as 0 °C. The IC50 in data set [2] stood at 2.52 µM; in [3], 3.01 µM; in [4], 0.2 µM; in data set [5], 0.16 µM; in [6], 0.16 µM; in data set [7], 0.02 µM. Also, the IC50 in [8] stood at 1.62 µM; in [9], 3.76 µM; in data set [10], 1.67 µM; in data set [11], 1.23 µM; in data set [12], 0.29 µM.
Consider `Cc1noc(C)c1-c1ccc2c(c1)O[C@H](CC1CC1)C(=O)N2`, for which, in [1], the ΔTm is -0.3 °C. Besides, the Kd in [13] turned out to be 0.11 µM. For the same compound, the inhibition result in data set [14] and in data set [19] was “Dose-dependent effect” throughout. In addition, the IC50 in data set [2] turned out to be 8.21 µM; in [3], 10.8 µM; in data set [4] it was 1.8 µM; in data set [5], 1.9 µM; in data set [6], 0.57 µM; in data set [7], 1.39 µM. Besides, the IC50 in data set [8] was found to be 11.2 µM; in data set [9], 18.6 µM; in data set [10], 5.4 µM; in [11], 9.86 µM; in [12], 20 µM. Besides, the inhibition result in [15], in data set [16], in data set [17] and in [18] was “Active” throughout. Besides, the fold change (FC) in data set [20] amounted to 0.06. The Activity came out at 27% in data set [21] and 57% in data set [22]. The same compound displayed a Cmax in [23] of 830 ng/mL. Also, the AUC(0-inf) in data set [24] was 997 ng·h/mL; in data set [25], 1460 ng·h/mL. Moreover, the half-life in data set [26] was 42 min. Further, the clearance in data set [27] was 33.9 mL/min/kg. Besides, the Vd in [28] is 1.6 L/kg.
For the compound `Cc1noc(C)c1-c1ccc2c(c1)O[C@H](CC1CC1)C(=O)N2CCN1CCOCC1`, the ΔTm in data set [1] was -0.3 °C.
In the case of `CCN1C(=O)[C@@H](CC2CC2)Oc2cc(-c3c(C)noc3C)ccc21`, in [1], the ΔTm came to 0.8 °C. In [13], this compound gave a Kd of 0.334 µM.
For `Cc1noc(C)c1-c1ccc2c(c1)OC(c1ccccc1)C(=O)N2` (stereo not drawn), the ΔTm in data set [1] is -0.9 °C.
On to `Cc1noc(C)c1-c1ccc2c(c1)O[C@H](CC(C)C)C(=O)N2`, for which the ΔTm in [1] was -0.9 °C. In data set [13], the Kd came to 0.081 µM. Further, the IC50 in [2] was 7.37 µM; in data set [3], 10.4 µM; in data set [4], 1.16 µM; in data set [5], 1.11 µM; in data set [6], 0.17 µM; in data set [7], 0.6 µM. Further, the IC50 is 12.9 µM in data set [8]; 41.1 µM in data set [9]; 5.96 µM in data set [10]; 33 µM in [11]; 30.2 µM in data set [12].
Regarding `Cc1noc(C)c1-c1ccc2c(c1)OC(c1ccccc1F)C(=O)N2` (stereo not drawn), the thermal shift (ΔTm) in data set [1] was -0.6 °C.

One may read the ΔTm as the shift of the melting midpoint relative to a reference. Usually IC50 stands for the concentration that gives 50% inhibition. Low readings indicate higher potency, high ones lower potency. In general, Kd refers to the concentration at which binding is half-saturated. Lower therefore signals higher affinity. A word on the Cmax: it is the peak of the concentration-time curve. For orientation: AUC(0-inf) means total exposure, with the tail of the curve extrapolated. Read a low AUC(0-inf) as low exposure. A word on the half-life: it is how long it takes for the measured level to halve. A higher half-life goes with slow loss. The term clearance denotes the rate of elimination divided by the concentration. A higher clearance goes with efficient removal.
